# In US11858910B2, “Pyridinylmethylenepiperidine derivatives and uses thereof” (SUNSHINE LAKE PHARMA CO., LTD., priority 2018, dated 2024):
# Where two headings read alike, the source gives them in different places.
# What was measured:
# human 5-HT1F receptor = molecular target: T1, human 5-HT1F receptor (Homo sapiens, UniProt P30939); assay: Activating effect on human 5-HT1F receptor transfected CHO-K1 cells (HitHunter cAMP detection kit); format: cell-based
# T1 construct: expressed in transfected cells; host or cells: CHO-K1
# T1 sequence (P30939 1-366): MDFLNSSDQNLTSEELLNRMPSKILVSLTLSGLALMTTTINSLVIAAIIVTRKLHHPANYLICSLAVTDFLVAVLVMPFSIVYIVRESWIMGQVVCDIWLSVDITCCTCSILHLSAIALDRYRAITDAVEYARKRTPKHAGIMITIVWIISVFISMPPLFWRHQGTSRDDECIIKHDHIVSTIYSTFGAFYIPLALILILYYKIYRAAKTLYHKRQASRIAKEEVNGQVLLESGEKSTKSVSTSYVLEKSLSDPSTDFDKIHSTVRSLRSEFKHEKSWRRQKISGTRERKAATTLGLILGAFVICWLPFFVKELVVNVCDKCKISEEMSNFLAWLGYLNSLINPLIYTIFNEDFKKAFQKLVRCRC
# Protocol: Experimental purposes: To evaluate the activating effect of the compound on CHO-K1 cells transfected human 5-HT1F receptor by using HitHunter cAMP detection kit.
# Experimental brief process: CHO-K1 cells were cultured in a 384 microporous plate. The volume of cell culture medium (Assay Complete™ Cell Plating Reagent, DIscoverX) was 20 μL and the cell density was 10,000/well. The cells were cultured overnight at 37° C. and 5% CO2. Then the culture medium was removed, and 15 μL of cAMP Assay Buffer (DIscoverX) was added into each well, and then 5 μL of test sample containing 4× sample (test compound or 5-HT) and 4× forskolin (final concentration of forskolin is 15 μM) was added. The microporous plate was placed at 37° C. for 30 minutes. Then 5 μL of cAMP Antibody Reagent (DiscoverX) and 20 μL of cAMP Working Detection Solution (DiscoverX) were added and incubated in the dark for 1 hour, and then 20 μL of cAMP Solution A was added and incubated in the dark for 3 hours. The microporous plate was placed in the Perkin Elmer Envision™ to read the intensity of the optical signal. The activation rate was calculated by the intensity of the optical signal obtained from testing the compounds with different concentrations ((1−(Y/Z))*100%=the activation rate, wherein, Y represents the intensity of the optical signal adding test sample, and Z represents the intensity of the optical signal adding only forskolin). The dose-effect curve of the compounds was calculated by Prism software, and the concentration of the agonist with half maximum response was calculated and expressed by EC50 value. The results were shown in Table A. 5-HT was used as a positive control drug to ensure the normal experimental system in this experiment.
# [1] = Pharmacokinetic evaluation after intravenous or gavage administration to dogs; format: in vivo, Beagle dogs
# Protocol: (§1) The inventors had evaluated the pharmacokinetics of the compounds of the invention in rats and dogs. Wherein animal information was detailed in Table 1.
# (§2) The compound was administered to the animal subjects in the form of 5% DMSO+60% PEG400+35% Saline solution or 10% DMSO+10% Kolliphor HS15+30% PEG400+50% Saline solution. The animals were fasted for 12 hours before administration, but drinking water freely. For the group of intravenous administration, the administration dose is 0.5 mg/kg or 1 mg/kg, and vein blood samples (0.15 mL) were collected at the time points of 0.083, 0.25, 0.5, 1.0, 2.0, 4.0, 6.0, 8.0 and 24 h (dogs) or 0.083, 0.25, 0.5, 1.0, 2.0, 5.0, 7.0 and 24 h (rats) after drug administration. EDTA-K2 as anticoagulant was pre-added into the blood vessel. The plasma solutions were collected by centrifuging each blood sample at 12,000 rpm for 2 minutes and kept at −20° C. or −70° C. For the group of gavage administration, the administration dose is 2.5 mg/kg or 5 mg/kg, and vein blood samples (0.15 mL) were collected at the time points of 0.25, 0.5, 1.0, 2.0, 4.0, 6.0, 8.0 and 24 h (dogs) or 0.25, 0.5, 1.0, 2.0, 5.0, 7.0 and 24 h (rats) after drug administration. EDTA-K2 as anticoagulant was pre-added into the blood vessel. The plasma solutions were collected by centrifuging each blood sample at 12,000 rpm for 2 minutes and kept at −20° C. or −70° C.
# (§3) After processing the above plasma sample (the frozen plasma was melted at room temperature and then whirled for 15 seconds. 10 to 20 μL of the plasma was taken out, and whirled with 120 to 150 μL of an acetonitrile solution containing an internal standard for 5 minutes. The mixture was centrifuged for 5 minutes at 4,000 rpm. 100 μL of the supernatant was taken out and mixed with 120 to 150 μL of methanol-water (v/v=1/1)), the concentration of compounds in plasma was analyzed by LC-MS/MS. […] The compound of the invention has better drug properties and better clinical application prospects. Wherein the pharmacokinetic parameters of examples 12 and 19 in rats were detailed in Table B1; the pharmacokinetic parameters of examples 12 and 19 in dogs were detailed in Table B2.
# [2] = Pharmacokinetic evaluation after intravenous or gavage administration to rats; format: in vivo, SD rats
# Protocol: as §1, §2, §3
# [3] = CHO-K1 cells, forskolin 15 μM, cAMP, read-out: EC50
# [4] = Beagle, dog, in vivo, iv, 0.5 mg/kg
# [5] = beagle, dog, in vivo, po, 2.5 mg/kg
smiles,measurement,setting,value
"CN1CCC(=Cc2cccc(NC(=O)c3c(F)cc(F)cc3F)n2)CC1 [Example 5, 2,4,6-trifluoro-N-(6-((1-methylpiperidin-4-ylidene)methyl)pyridine-2-yl)benzamide]",EC50,human 5-HT1F receptor; [3],1.9 nM
"CN1CCC(=C(F)c2cccc(NC(=O)c3c(F)cc(F)cc3F)n2)CC1 [Example 12, 2,4,6-trifluoro-N-(6-(fluoro(1-methylpiperidin-4-ylidene)methyl)pyridine-2-yl)benzamide]",AUC(0-inf),"[1]; Beagle, dog, plasma, iv, dogs, i.v group, 1 mg/kg, read-out: AUCINF",660 ng·h/mL
same,AUC(0-t),"[1]; Beagle, dog, plasma, iv, dogs, i.v group, 1 mg/kg, read-out: AUClast",652 ng·h/mL
same,clearance,"[1]; Beagle, dog, plasma, iv, dogs, i.v group, 1 mg/kg, read-out: Cl",25.2 mL/min/kg
same,Cmax,"[1]; Beagle, dog, plasma, iv, dogs, i.v group, 1 mg/kg, read-out: Cmax",170 ng/mL
same,MRT inf,"[1]; Beagle, dog, plasma, iv, dogs, i.v group, 1 mg/kg, read-out: MRTINF",4.11 h
same,half-life,"[1]; Beagle, dog, plasma, iv, dogs, i.v group, 1 mg/kg, read-out: T1/2 (converted)",3.52 h
same,Tmax,"[1]; Beagle, dog, plasma, iv, dogs, i.v group, 1 mg/kg, read-out: Tmax",0.25 h
same,Vd,"[1]; Beagle, dog, plasma, iv, dogs, i.v group, 1 mg/kg, read-out: Vss",6.22 L/kg
same,AUC(0-inf),"[1]; Beagle, dog, plasma, po, dogs, i.g group, 5 mg/kg, read-out: AUCINF",705 ng·h/mL
same,AUC(0-t),"[1]; Beagle, dog, plasma, po, dogs, i.g group, 5 mg/kg, read-out: AUClast",691 ng·h/mL
same,Cmax,"[1]; Beagle, dog, plasma, po, dogs, i.g group, 5 mg/kg, read-out: Cmax",82.8 ng/mL
same,MRT inf,"[1]; Beagle, dog, plasma, po, dogs, i.g group, 5 mg/kg, read-out: MRTINF",5.98 h
same,half-life,"[1]; Beagle, dog, plasma, po, dogs, i.g group, 5 mg/kg, read-out: T1/2 (converted)",4.28 h
same,Tmax,"[1]; Beagle, dog, plasma, po, dogs, i.g group, 5 mg/kg, read-out: Tmax",1.67 h
same,F,"[1]; dogs, i.g group, 5 mg/kg",21.4%
same,AUC(0-inf),"[2]; SD, rat, plasma, iv, rats, i.v group, 1 mg/kg, read-out: AUCINF",114 ng·h/mL
same,AUC(0-t),"[2]; SD, rat, plasma, iv, rats, i.v group, 1 mg/kg, read-out: AUClast",111 ng·h/mL
same,clearance,"[2]; SD, rat, plasma, iv, rats, i.v group, 1 mg/kg, read-out: Cl",146 mL/min/kg
same,Cmax,"[2]; SD, rat, plasma, iv, rats, i.v group, 1 mg/kg, read-out: Cmax",80.5 ng/mL
same,MRT inf,"[2]; SD, rat, plasma, iv, rats, i.v group, 1 mg/kg, read-out: MRTINF",1.66 h
same,half-life,"[2]; SD, rat, plasma, iv, rats, i.v group, 1 mg/kg, read-out: T1/2 (converted)",1.38 h
same,Tmax,"[2]; SD, rat, plasma, iv, rats, i.v group, 1 mg/kg, read-out: Tmax",0.083 h
same,Vd,"[2]; SD, rat, plasma, iv, rats, i.v group, 1 mg/kg, read-out: Vss",14.6 L/kg
same,AUC(0-inf),"[2]; SD, rat, plasma, po, rats, i.g group, 5 mg/kg, read-out: AUCINF",354 ng·h/mL
same,AUC(0-t),"[2]; SD, rat, plasma, po, rats, i.g group, 5 mg/kg, read-out: AUClast",296 ng·h/mL
same,Cmax,"[2]; SD, rat, plasma, po, rats, i.g group, 5 mg/kg, read-out: Cmax",71.8 ng/mL
same,MRT inf,"[2]; SD, rat, plasma, po, rats, i.g group, 5 mg/kg, read-out: MRTINF",4.05 h
same,half-life,"[2]; SD, rat, plasma, po, rats, i.g group, 5 mg/kg, read-out: T1/2 (converted)",2.31 h
same,Tmax,"[2]; SD, rat, plasma, po, rats, i.g group, 5 mg/kg, read-out: Tmax",2 h
same,F,"[2]; rats, i.g group, 5 mg/kg",62%
same,EC50,human 5-HT1F receptor,1.5 nM
"CN1CCC(=C(F)c2cccc(NC(=O)c3ccc(F)cc3F)n2)CC1 [Example 10, 2,4-difluoro-N-(6-(fluoro(1-methylpiperidin-4-ylidene)methyl)pyridine-2-yl)benzamide]",EC50,human 5-HT1F receptor; [3],3 nM
"CCN1CCC(=C(F)c2cccc(NC(=O)c3c(F)cc(F)cc3F)n2)CC1 [Example 19, 2,4,6-trifluoro-N-(6-(fluoro(1-ethylpiperidin-4-ylidene)methyl)pyridin-2-yl)benzamide]",F,"[1]; Beagle, dog, in vivo, 2.5 mg/kg",12.4%
same,AUC(0-inf),[1]; [4],634 ng·h/mL
same,AUC(0-t),[1]; [4],632 ng·h/mL
same,Cmax,[1]; [4],442 ng/mL
same,MRT inf,[1]; [4],1.39 h
same,Tmax,[1]; [4],0.083 h
same,Vd,[1]; [4],1.1 L/kg
same,clearance,[1]; [4],13.1 mL/min/kg
same,half-life,[1]; [4],1.06 h
same,AUC(0-inf),[1]; [5],392 ng·h/mL
same,AUC(0-t),[1]; [5],356 ng·h/mL
same,Cmax,[1]; [5],126 ng/mL
same,MRT inf,[1]; [5],3.26 h
same,Tmax,[1]; [5],1 h
same,half-life,[1]; [5],1.96 h
same,F,"[2]; SD, rat, in vivo, 5 mg/kg",105%
same,AUC(0-inf),"[2]; SD, rat, in vivo, iv, 1 mg/kg",259 ng·h/mL
same,AUC(0-t),"[2]; SD, rat, in vivo, iv, 1 mg/kg",240 ng·h/mL
same,Cmax,"[2]; SD, rat, in vivo, iv, 1 mg/kg",67.7 ng/mL
same,MRT inf,"[2]; SD, rat, in vivo, iv, 1 mg/kg",2.95 h
same,Tmax,"[2]; SD, rat, in vivo, iv, 1 mg/kg",0.5 h
same,Vd,"[2]; SD, rat, in vivo, iv, 1 mg/kg",11.4 L/kg
same,clearance,"[2]; SD, rat, in vivo, iv, 1 mg/kg",64.4 mL/min/kg
same,half-life,"[2]; SD, rat, in vivo, iv, 1 mg/kg",2.1 h
same,AUC(0-inf),"[2]; SD, rat, in vivo, po, 5 mg/kg",1320 ng·h/mL
same,AUC(0-t),"[2]; SD, rat, in vivo, po, 5 mg/kg",1260 ng·h/mL
same,Cmax,"[2]; SD, rat, in vivo, po, 5 mg/kg",169 ng/mL
same,MRT inf,"[2]; SD, rat, in vivo, po, 5 mg/kg",5.01 h
same,Tmax,"[2]; SD, rat, in vivo, po, 5 mg/kg",3.67 h
same,half-life,"[2]; SD, rat, in vivo, po, 5 mg/kg",3.06 h
same,EC50,human 5-HT1F receptor; [3],6.8 nM
"CN1CCC(=Cc2cccc(NC(=O)c3ccc(F)cc3F)n2)CC1 [Example 3, 2,4-difluoro-N-(6-((1-methylpiperidin-4-ylidene)methyl)pyridine-2-yl)benzamide]",EC50,human 5-HT1F receptor; [3],5.9 nM
